Measured values as given in patent US20120040976A1, “SMALL MOLECULE IMMUNOMODULATORS FOR ALZHEIMER'S DISEASE” (HUMAN BIOMOLECULAR RESEARCH INSTITUTE, priority 2008, published 2012).

Legend:
[1] = tested on: MGAT3; experiment: MGAT3 expression in response to oxidative stress (H2O2) in neuroblastoma cells; assay type: cell-based, human; settings: H2O2, data not shown
Protocol: Gene expression in response to oxidative stress. […] The neuroblastoma SHSY5Y and wtSOD^+ overexpressing cells were subjected to varying concentrations of hydrogen peroxide (H2O2; 0.5-5 mM) for varying times. After 1, 2, and 3 hours of incubation, cells were harvested, total RNAs were isolated, and prepared cDNAs were used in qPCR experiments to quantify normalized mRNA levels. MGAT3 expression in untransfected cells increased in relation to oxidative stress conditions, with peak expression (>200-fold increased) at 2-3 hours in the presence of 2.5 mM H2O2. Again, increased SOD1 expression appeared to potentiate MGAT3 expression, with higher maximal MGAT3 expression (>300-fold increased) observed in the wtSOD^+ line, and at lower H2O2 concentrations (e.g. 0.5 mM). […] Further, curcumins may potentiate the cellular response to oxidative stress and may therefore have a protective effect.

[2] = tested on: TLR 1; experiment: TLR 1 transcription ratio, AD patient / control PBMCs (qPCR); assay type: cell-based, human; settings: Aβ stimulation
Protocol: (§1) qPCR reactions of cultured monocyte cDNAs. One μL total cellular cDNA per reaction is used in triplicate reactions for each test gene, and for each culture treatment. SYBR-Green reactions were run on a Continuous Fluorescence real-time thermocycler and analyzed. Cycle threshold (Ct) values are recorded for each replicate reaction, and are then averaged and normalized against mean Ct values from one or more control genes. Fold-expression differences relative to untreated cells are determined using the 2^−ΔΔCt method as previously described. Data from the curcumin concentration range are plotted in order to determine EC50 values (concentrations producing one-half maximal stimulant activity), which are used for comparisons of potency between different compounds. Data are also evaluated for each gene with regard to sensitivity, maximally effective concentration of curcuminoid, response to Aβ, and overall magnitude of fold-expression changes.
MGAT3 and/or TLR transcription were tested by qPCR in human monocyte cells treated with curcuminoids and compared the results to those treated with vehicle (Table 7). As discussed above, activation or up-regulation of macrophage MGAT3 or TLR's results in many functional outcomes, including the enhancement of […] and removal of Aβ, increased apoptosis, secretion of inflammatory cytokines, and other anti-AD antimicrobial activities. […]

[3] = tested on: TLR4; experiment: TLR4 gene expression by qPCR in U-937 human monocytic cells treated with curcumins plus Aβ; assay type: cell-based; settings: human monocytic cells (U-937), curcumin plus Aβ
Protocol: Cell culture conditions for monocytic cell lines. Human and mouse monocyte cell lines are grown in RPMI-1640 medium with 10% fetal bovine serum (FBS), plus glutamine and pen/strep. For treatment with compounds (curcuminoids+/−Aβ), replicate sets of 0.5-1.0 mL cultures containing 1-2×10^6 cells are set up in the wells of 48-well tissue culture plates. Both replicate sets have at least one control well receiving no added curcuminoid to provide baseline expression controls for untreated, and Aβ-only treated cells. Remaining wells receive curcuminoid in a range of 10-fold serial dilutions in DMSO, typically from […] Cultures are incubated for 20-24 hours (“overnight”) at 37° C. in atmosphere with 5% CO2. After one overnight, to one of replicate sets of cultures is added Aβ (1-42) peptide to a final concentration of 5 μg/mL.
RNA isolation and cDNA synthesis. After the first overnight incubation in the presence of curcuminoid, cells from one replicate set of wells are collected by centifugation. RNAs are extracted from pelleted cells using miniprep column kits following manufacturer's protocol for animal cells. […] of total cellular RNA from each well is quantitated using a Nanodrop spectrophotometer, and first-strand total cDNA is prepared from 0.3-1.0 μg RNA by random-hexamer priming. Following the second 20 hr. incubation in the presence of Aβ, RNA extractions and cDNA synthesis are similarly performed.
Assay development. Gene-specific mRNA levels are determined using a real-time thermocycler, and by normalizing to expression of one or more control genes. Assays for quantifying mRNA levels are based on gene sequences reported in NCBI Genbank. PCR oligonucleotide primers are selected spanning introns to minimize the opportunity for amplication from any contaminating genomic DNA in the RNA preps. Oligonucleotides are typically tested and used at a concentration of 200 nM in qPCR reactions containing SYBR dye. Control reactions include template from cDNA synthesis reactions either + or − reverse transcriptase (RT), as well as no-template controls (ntc). All reactions are performed in triplicate. Reactions are typically run with 40 cycles of 95° C. (10 sec) and 58° C. (30 sec). Melt curves based on incremental 0.5° C. increases are determined for new assays to test for uniformity of amplified products. Reaction conditions are modified as needed depending on initial test results. ‘Working’ assays are selected based on clear RNA-dependent amplification and absence of product in ‘ntc’ reactions. The following assay primers are used: […]
as §1, with “Data from the curcumin concentration range are plotted in order to determine EC50 values (concentrations producing one-half maximal stimulant activity), which are used for comparisons of potency between different compounds.” left out, “changes. […]” for “changes.”

SMILES: O=C(/C=C(O)/C=C/c1ccc(O)cc1)/C=C/c1ccc(O)cc1 [Compound 1, 5-Hydroxy-1,7-bis-(4-hydroxy-phenyl)-hepta-1,4,6-trien-3-one, reference compound]
- Effect on MGAT3 expression in response to oxidative stress [1]: enhance MGAT3 expression
- Relative ratio of TLR 1 transcription in AD patient / control PBMC's [2]: TLR 1 ++ ((++) indicates a ratio of 1.5-2.0)
- Relative gene expression TLR4, increased expression relative to control cells [3]: + ((+) <20-fold)
